Source: patent publication US9809587B2, “Pesticidally active heterocyclic derivatives with sulphur containing substituents” (Syngenta Participations AG, priority 2014, dated 2017)

Assays:
Assay type in all cases: in vivo
[1] = system: Bemisia tabaci (Cotton White Fly); assay: Bemisia tabaci (cotton white fly), sprayed cotton leaf discs; details: foliar, 144 h, application rate of 200 ppm, adult white flies on cotton leaf discs, 6 days after incubation
Method: Example B1: Bemisia tabaci (Cotton White Fly)
Cotton leaf discs were placed on agar in 24-well microtiter plates and sprayed with aqueous test solutions prepared from 10′000 ppm DMSO stock solutions. After drying the leaf discs were infested with adult white flies. The samples were checked for mortality 6 days after incubation.

[2] = system: Diabrotica balteata (Corn Root Worm); assay: Diabrotica balteata (corn root worm), sprayed maize sprouts; details: 96 h, application rate of 200 ppm, L2 larvae on maize sprouts, 4 days after infestation
Method: Example B2: Diabrotica balteata (Corn Root Worm)
Maize sprouts, placed on an agar layer in 24-well microtiter plates were treated with aqueous test solutions prepared from 10′000 ppm DMSO stock solutions by spraying. After drying, the plates were infested with L2 larvae (6 to 10 per well). The samples were assessed for mortality and growth inhibition in comparison to untreated samples 4 days after infestation.

[3] = system: Euschistus heros (Neotropical Brown Stink Bug); assay: Euschistus heros (neotropical brown stink bug), sprayed soybean leaf; details: 120 h, application rate of 200 ppm, N-2 nymphs on soybean leaf, 5 days after infestation
Method: Example B3: Euschistus heros (Neotropical Brown Stink Bug)
Soybean leaf on agar in 24-well microtiter plates were sprayed with aqueous test solutions prepared from 10′000 ppm DMSO stock solutions. After drying the leaf were infested with N-2 nymphs. The samples were assessed for mortality in comparison to untreated samples 5 days after infestation.

[4] = system: Myzus persicae (Green Peach Aphid); assay: Myzus persicae (green peach aphid), sprayed sunflower leaf discs; details: foliar, 144 h, application rate of 200 ppm, mixed ages on sunflower leaf discs, 6 days after infestation
Method: Example B4: Myzus persicae (Green Peach Aphid)
Sunflower leaf discs were placed on agar in a 24-well microtiter plate and sprayed with aqueous test solutions prepared from 10′000 ppm DMSO stock solutions. After drying, the leaf discs were infested with an aphid population of mixed ages. The samples were assessed for mortality 6 days after infestation.

[5] = system: Plutella xylostella (Diamond Back Moth); assay: Plutella xylostella (diamond back moth), treated artificial diet; details: 120 h, application rate of 200 ppm, L2 larvae on artificial diet, 5 days after infestation, read-out: effect in at least one of the two categories (mortality or growth inhibition)
Method: Example B6: Plutella xylostella (Diamond Back Moth)
24-well microtiter plates with artificial diet were treated with aqueous test solutions prepared from 10′000 ppm DMSO stock solutions by pipetting. After drying, the plates were infested with L2 larvae (10 to 15 per well). The samples were assessed for mortality and growth inhibition in comparison to untreated samples 5 days after infestation.
The following compounds gave an effect of at least 80% in at least one of the two categories (mortality or growth inhibition) at an application rate of 200 ppm: […]

[6] = system: Spodoptera littoralis (Egyqptian Cotton Leaf Worm); assay: Spodoptera littoralis (Egyptian cotton leaf worm), sprayed cotton leaf discs; details: foliar, 72 h, application rate of 200 ppm, L1 larvae on cotton leaf discs, 3 days after infestation
Method: Example B7: Spodoptera littoralis (Egyqptian Cotton Leaf Worm)
Cotton leaf discs were placed on agar in 24-well microtiter plates and sprayed with aqueous test solutions prepared from 10′000 ppm DMSO stock solutions. After drying the leaf discs were infested with five L1 larvae. The samples were assessed for mortality, anti-feedant effect, and growth inhibition in comparison to untreated samples 3 days after infestation. Control of Spodoptera littoralis by a test sample is when at least one of mortality, anti-feedant effect, and growth inhibition is higher than the untreated sample.

[7] = system: Spodoptera littoralis (Egyqptian Cotton Leaf Worm); assay: Spodoptera littoralis (Egyptian cotton leaf worm), compound in agar taken up by lettuce roots; details: 144 h, test rate of 12.5 ppm, uptake by lettuce roots from agar, 6 days after infestation, read-out: effect in at least one of the three categories (mortality, anti-feedancy, or growth inhibition)
Excerpt: Example B8: Spodoptera littoralis (Egyqptian Cotton Leaf Worm)
Test compounds were applied by pipette from 10′000 ppm DMSO stock solutions into 24-well plates and mixed with agar. Lettuce seeds were placed on the agar and the multi well plate was closed by another plate which contains also agar. After 7 days the roots have absorbed the compound and the lettuce has grown into the lid plate. The lettuce leafs were now cut off into the lid plate. Spodoptera eggs were pipetted through a plastic stencil on a humid gel blotting paper and the plate closed with it. The samples were assessed for mortality, anti-feedant effect and growth inhibition in comparison to untreated samples 6 days after infestation.
The following compounds gave an effect of at least 80% in at least one of the three categories (mortality, anti-feedancy, or growth inhibition) at a test rate of 12.5 ppm: […]

CCS(=O)(=O)c1cc(-c2cnc(Cl)nc2)cnc1-c1nc2cc(C(F)(F)F)ncc2n1C [Compound P10]
≥ 80%: mortality at 200 ppm [1]

CCS(=O)(=O)c1cc(-c2cnc3nc(C(F)(F)F)ccn23)cnc1-c1nc2cc(C(F)(F)F)ncc2n1C [Compound P36]
≥ 80%: mortality at 200 ppm [2] | mortality at 200 ppm [3] | mortality at 200 ppm [4] | percent effect (mortality or growth inhibition) at 200 ppm [5] | percent control (mortality, anti-feedant effect or growth inhibition) at 200 ppm [6]

CCS(=O)(=O)c1cc(-c2ncccc2OC(F)F)cnc1-c1nc2cc(C(F)(F)F)ncc2n1C [Compound P43]
≥ 80%: mortality at 200 ppm [2] | mortality at 200 ppm [3] | mortality at 200 ppm [4] | percent effect (mortality or growth inhibition) at 200 ppm [5] | percent control (mortality, anti-feedant effect or growth inhibition) at 200 ppm [6]

CCS(=O)(=O)c1cc(-c2ncc(Cl)cc2Cl)cnc1-c1nc2cc(C(F)(F)F)ncc2n1C [Compound P44]
≥ 80%: mortality at 200 ppm [2] | mortality at 200 ppm [3] | mortality at 200 ppm [4] | percent effect (mortality or growth inhibition) at 200 ppm [5] | percent control (mortality, anti-feedant effect or growth inhibition) at 200 ppm [6] | percent control (mortality, anti-feedancy or growth inhibition) at 12.5 ppm [7]

CCS(=O)(=O)c1cc(-c2cncc(C)c2)cnc1-c1nc2cc(C(F)(F)F)ncc2n1C [Compound P45]
≥ 80%: mortality at 200 ppm [1] | mortality at 200 ppm [2] | mortality at 200 ppm [3] | mortality at 200 ppm [4] | percent effect (mortality or growth inhibition) at 200 ppm [5] | percent control (mortality, anti-feedant effect or growth inhibition) at 200 ppm [6]

CCS(=O)(=O)c1cc(-c2ccnc(C(F)(F)F)c2)cnc1-c1nc2cc(C(F)(F)F)ncc2n1C [Compound P46]
≥ 80%: mortality at 200 ppm [1] | mortality at 200 ppm [2] | mortality at 200 ppm [3] | mortality at 200 ppm [4] | percent effect (mortality or growth inhibition) at 200 ppm [5] | percent control (mortality, anti-feedant effect or growth inhibition) at 200 ppm [6] | percent control (mortality, anti-feedancy or growth inhibition) at 12.5 ppm [7]

CCS(=O)(=O)c1cc(-c2ncccc2C)cnc1-c1nc2cc(C(F)(F)F)ncc2n1C [Compound P50]
≥ 80%: mortality at 200 ppm [2] | mortality at 200 ppm [3] | mortality at 200 ppm [4] | percent effect (mortality or growth inhibition) at 200 ppm [5] | percent control (mortality, anti-feedant effect or growth inhibition) at 200 ppm [6] | percent control (mortality, anti-feedancy or growth inhibition) at 12.5 ppm [7]

CCS(=O)(=O)c1cc(-c2ncccc2C(F)(F)F)cnc1-c1nc2cc(C(F)(F)F)ncc2n1C [Compound P52]
≥ 80%: mortality at 200 ppm [2] | mortality at 200 ppm [3] | mortality at 200 ppm [4] | percent effect (mortality or growth inhibition) at 200 ppm [5] | percent control (mortality, anti-feedant effect or growth inhibition) at 200 ppm [6] | percent control (mortality, anti-feedancy or growth inhibition) at 12.5 ppm [7]

CCS(=O)(=O)c1cc(-c2ncc(C(F)(F)F)cc2F)cnc1-c1nc2cc(C(F)(F)F)ncc2n1C [Compound P54]
≥ 80%: mortality at 200 ppm [2] | mortality at 200 ppm [3] | mortality at 200 ppm [4] | percent effect (mortality or growth inhibition) at 200 ppm [5] | percent control (mortality, anti-feedant effect or growth inhibition) at 200 ppm [6] | percent control (mortality, anti-feedancy or growth inhibition) at 12.5 ppm [7]

CCS(=O)(=O)c1cc(-c2ccc(C)cn2)cnc1-c1nc2cc(C(F)(F)F)ncc2n1C [Compound P55]
≥ 80%: mortality at 200 ppm [2] | mortality at 200 ppm [3] | mortality at 200 ppm [4] | percent effect (mortality or growth inhibition) at 200 ppm [5] | percent control (mortality, anti-feedant effect or growth inhibition) at 200 ppm [6]

CCS(=O)(=O)c1cc(-c2cc(C)ccn2)cnc1-c1nc2cc(C(F)(F)F)ncc2n1C [Compound P57]
≥ 80%: mortality at 200 ppm [3] | mortality at 200 ppm [4] | percent effect (mortality or growth inhibition) at 200 ppm [5] | percent control (mortality, anti-feedant effect or growth inhibition) at 200 ppm [6] | percent control (mortality, anti-feedancy or growth inhibition) at 12.5 ppm [7]

CCS(=O)(=O)c1cc(-c2cccc(Cl)n2)cnc1-c1nc2cc(C(F)(F)F)ncc2n1C [Compound P59]
≥ 80%: mortality at 200 ppm [1] | mortality at 200 ppm [2] | mortality at 200 ppm [3] | mortality at 200 ppm [4] | percent effect (mortality or growth inhibition) at 200 ppm [5] | percent control (mortality, anti-feedant effect or growth inhibition) at 200 ppm [6] | percent control (mortality, anti-feedancy or growth inhibition) at 12.5 ppm [7]

CCS(=O)(=O)c1cc(-c2ccc(C#N)nc2)cnc1-c1nc2cc(C(F)(F)F)ncc2n1C [Compound P65]
≥ 80%: mortality at 200 ppm [2] | mortality at 200 ppm [3] | mortality at 200 ppm [4] | percent effect (mortality or growth inhibition) at 200 ppm [5] | percent control (mortality, anti-feedant effect or growth inhibition) at 200 ppm [6]

CCS(=O)(=O)c1cc(-c2cncc(C(F)(F)F)c2)cnc1-c1nc2cc(C(F)(F)F)ncc2n1C [Compound P66]
≥ 80%: mortality at 200 ppm [1] | mortality at 200 ppm [2] | mortality at 200 ppm [3] | mortality at 200 ppm [4] | percent effect (mortality or growth inhibition) at 200 ppm [5] | percent control (mortality, anti-feedant effect or growth inhibition) at 200 ppm [6]

CCS(=O)(=O)c1cc(-c2cccc3c2OC(F)(F)O3)cnc1-c1nc2cc(C(F)(F)F)ncc2n1C [Compound P72]
≥ 80%: mortality at 200 ppm [2] | mortality at 200 ppm [3] | mortality at 200 ppm [4] | percent effect (mortality or growth inhibition) at 200 ppm [5] | percent control (mortality, anti-feedant effect or growth inhibition) at 200 ppm [6] | percent control (mortality, anti-feedancy or growth inhibition) at 12.5 ppm [7]

CCS(=O)(=O)c1cc(-c2ccnc(Cl)c2)cnc1-c1nc2cc(C(F)(F)F)ncc2n1C [Compound P77]
≥ 80%: mortality at 200 ppm [1] | mortality at 200 ppm [2] | mortality at 200 ppm [3] | mortality at 200 ppm [4] | percent effect (mortality or growth inhibition) at 200 ppm [5] | percent control (mortality, anti-feedant effect or growth inhibition) at 200 ppm [6] | percent control (mortality, anti-feedancy or growth inhibition) at 12.5 ppm [7]

CCS(=O)(=O)c1cc(-c2cccnc2)cnc1-c1nc2cc(C(F)(F)F)ncc2n1C [Compound P80]
≥ 80%: mortality at 200 ppm [1] | mortality at 200 ppm [4] | percent effect (mortality or growth inhibition) at 200 ppm [5] | percent control (mortality, anti-feedant effect or growth inhibition) at 200 ppm [6]

CCS(=O)(=O)c1cc(-c2ccncc2)cnc1-c1nc2cc(C(F)(F)F)ncc2n1C [Compound P81]
≥ 80%: mortality at 200 ppm [1] | mortality at 200 ppm [3] | mortality at 200 ppm [4] | percent effect (mortality or growth inhibition) at 200 ppm [5]

CCS(=O)(=O)c1cc(-c2ccsc2)cnc1-c1nc2cc(C(F)(F)F)ncc2n1C [Compound P82]
≥ 80%: mortality at 200 ppm [2] | mortality at 200 ppm [4] | percent effect (mortality or growth inhibition) at 200 ppm [5] | percent control (mortality, anti-feedant effect or growth inhibition) at 200 ppm [6] | percent control (mortality, anti-feedancy or growth inhibition) at 12.5 ppm [7]

CCS(=O)(=O)c1cc(-c2cccc(OC)n2)cnc1-c1nc2cc(C(F)(F)F)ncc2n1C [Compound P95]
≥ 80%: mortality at 200 ppm [2] | mortality at 200 ppm [3] | mortality at 200 ppm [4] | percent effect (mortality or growth inhibition) at 200 ppm [5] | percent control (mortality, anti-feedant effect or growth inhibition) at 200 ppm [6]

CCS(=O)(=O)c1cc(-n2ccc(C#N)n2)cnc1-c1nc2cc(C(F)(F)F)ncc2n1C [Compound P98]
≥ 80%: mortality at 200 ppm [2] | mortality at 200 ppm [3] | mortality at 200 ppm [4] | percent effect (mortality or growth inhibition) at 200 ppm [5] | percent control (mortality, anti-feedant effect or growth inhibition) at 200 ppm [6]

CCS(=O)(=O)c1cc(-c2ccnc(Cl)n2)cnc1-c1nc2cc(C(F)(F)F)ncc2n1C [Compound P105]
≥ 80%: mortality at 200 ppm [2] | mortality at 200 ppm [4] | percent effect (mortality or growth inhibition) at 200 ppm [5] | percent control (mortality, anti-feedant effect or growth inhibition) at 200 ppm [6] | percent control (mortality, anti-feedancy or growth inhibition) at 12.5 ppm [7]
